This note sets out measurements from ChEMBL document CHEMBL1201862, “PubChem BioAssay data set” (2004).

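Five concentrations, 48 hours, 96-well plates. GI50 marks 50% less growth.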 The source made the active and inactive calls. No stated cut-off is given here; in the data, active = GI50 up to about 1.1 µM and inactive = higher.

Test systems include HCT-116; UO-31; SR; OVCAR-8; ACHN; NCI-H23; 786-0; M14; SW-620; RXF 393; NCI-H522; CCRF-CEM; MOLT-4; SN12C; LOX IMVI; COLO 205; TK-10; CAKI-1.
Assay in all cases: NCI-60 cell line screen, 48 h

For the compound `C=CCNC(=S)N1CC(C)C(=O)Nc2ccccc21` (configuration not stated), the GI50 in the assay on HCT-116, in the assay on UO-31, in the assay with SR, in the assay with OVCAR-8, in the assay on ACHN and with NCI-H23 was > 100 µM (inactive) in each case. The GI50 in the assay with 786-0, with M14, with SW-620, with RXF 393, in the assay with NCI-H522 and with CCRF-CEM was > 100 µM (inactive) in each case. The GI50 in the assay with MOLT-4, in the assay with SN12C, in the assay with LOX IMVI, in the assay on COLO 205 and with TK-10 was > 100 µM (inactive) throughout.

On to `Cc1c(Cl)cccc1NC(=O)/C(Cl)=C(\Cl)C(=O)O`, for which the GI50 is 14.2 µM (inactive) in the assay on HCT-116; 17.3 µM (inactive) with CAKI-1; 18.7 µM (inactive) in the assay with UO-31; 5.26 µM (inactive) in the assay with SR; 17.5 µM (inactive) in the assay on ACHN; 19.5 µM (inactive) with NCI-H23. Further, the GI50 with 786-0 is 18.4 µM (inactive); with M14 it was 16.1 µM (inactive); in the assay on SW-620 it was 19.4 µM (inactive); in the assay on RXF 393 it was 19.9 µM (inactive); in the assay with NCI-H522, 2.1 µM (inactive); with CCRF-CEM, 4.14 µM (inactive). For the same compound, the GI50 with MOLT-4 was 7.43 µM (inactive); with SN12C it was 17.4 µM (inactive); in the assay with LOX IMVI it was 18.7 µM (inactive); with COLO 205, 9.4 µM (inactive); with TK-10, 20.9 µM (inactive).

With `CN(C)c1n/c(=N/c2ccc3ccccc3c2)ss1`, the GI50 was 13.8 µM (inactive) with HCT-116; 5.87 µM (inactive) with CAKI-1; 23.4 µM (inactive) in the assay on UO-31; 11.6 µM (inactive) with SR; 19.5 µM (inactive) with OVCAR-8; 20.6 µM (inactive) with ACHN. The GI50 in the assay with 786-0 was 37.6 µM (inactive); in the assay on M14 it was 24 µM (inactive); with SW-620 it was 45.3 µM (inactive); in the assay on RXF 393 it was 41.9 µM (inactive); in the assay on NCI-H522, 7.41 µM (inactive); in the assay with CCRF-CEM it was 7.05 µM (inactive). In addition, the GI50 in the assay with MOLT-4 was 4.45 µM (inactive); in the assay with SN12C it was 32.9 µM (inactive); with COLO 205, 11.2 µM (inactive); in the assay with TK-10, 14.1 µM (inactive).

As to `C=C=C(Sc1ccccc1)C(C)(C)O`, the GI50 in the assay with HCT-116, in the assay on UO-31, with SR, in the assay with OVCAR-8, in the assay on ACHN and in the assay with NCI-H23 was > 100 µM (inactive) throughout. In addition, the GI50 is > 100 µM (inactive) with 786-0; > 100 µM (inactive) with M14; > 100 µM (inactive) in the assay with SW-620; > 100 µM (inactive) with RXF 393; 0.399 µM (active) with NCI-H522; > 100 µM (inactive) in the assay on CCRF-CEM. Besides, the GI50 in the assay on MOLT-4, in the assay on SN12C, in the assay on LOX IMVI, in the assay on COLO 205 and in the assay on TK-10 was > 100 µM (inactive) throughout.

In the case of `O=C(Cc1ccccc1)N/N=C(/c1nc2ccc([N+](=O)[O-])cc2nc1O)C(O)c1ccc(C(O)/C(=N/NC(=O)Cc2ccccc2)c2nc3ccc([N+](=O)[O-])cc3nc2O)cc1` (configuration not stated), the GI50 was 48.8 µM (inactive) in the assay on HCT-116; 40.1 µM (inactive) in the assay with CAKI-1; > 10 µM (inactive) in the assay with SR; 80.4 µM (inactive) with OVCAR-8; 35.2 µM (inactive) in the assay on ACHN; > 100 µM (inactive) in the assay on NCI-H23. For the same compound, the GI50 in the assay on 786-0 was > 100 µM (inactive); in the assay with M14, 40.6 µM (inactive); in the assay with SW-620 it was 39.4 µM (inactive); in the assay on RXF 393, > 100 µM (inactive); with NCI-H522, 3.3 µM (inactive); in the assay with CCRF-CEM, 7.26 µM (inactive). In addition, the GI50 with SN12C was > 100 µM (inactive); with LOX IMVI, 12.1 µM (inactive); in the assay with COLO 205 it was 37.5 µM (inactive); in the assay with TK-10, 48.1 µM (inactive).

For `COCCCNC(=O)CC(=O)NCCCOC`, the GI50 with HCT-116, in the assay on UO-31, with SR, in the assay on OVCAR-8, with ACHN and in the assay on NCI-H23 was > 100 µM (inactive) in each case. Further, the GI50 with 786-0, in the assay on M14, in the assay with SW-620, with RXF 393, in the assay with NCI-H522 and in the assay with CCRF-CEM was > 100 µM (inactive) throughout. The GI50 in the assay with MOLT-4, in the assay with SN12C, in the assay with COLO 205 and with TK-10 was > 100 µM (inactive) in each case.

With `Cc1ccc([N+](=O)[O-])cc1NC(=O)/C(CC(=O)c1sc(C(N)=S)nc1C)=N\N`, the GI50 with HCT-116 was 71 µM (inactive); in the assay on CAKI-1 it was > 100 µM (inactive); with UO-31, 48.1 µM (inactive); in the assay with SR, 88.9 µM (inactive); in the assay on OVCAR-8, > 100 µM (inactive); in the assay with ACHN, 96.2 µM (inactive). For the same compound, the GI50 in the assay on NCI-H23 is 31.7 µM (inactive); in the assay with 786-0, 40.6 µM (inactive); in the assay on M14, > 100 µM (inactive); in the assay on SW-620, > 100 µM (inactive); in the assay with RXF 393 it was > 100 µM (inactive); in the assay on NCI-H522 it was 20.9 µM (inactive). The GI50 in the assay with CCRF-CEM is 26.9 µM (inactive); in the assay on MOLT-4 it was 68.5 µM (inactive); in the assay with LOX IMVI, > 100 µM (inactive); with TK-10 it was > 100 µM (inactive).

As to `N#CC1(C2CC(=O)N(c3ccccc3)C2=O)CCCCC1=O` (configuration not stated), the GI50 in the assay on UO-31, in the assay with SR, with OVCAR-8, in the assay on ACHN, with NCI-H23 and with 786-0 was > 100 µM (inactive) each time. The GI50 in the assay on M14 is > 100 µM (inactive); with SW-620 it was > 100 µM (inactive); in the assay with RXF 393, > 100 µM (inactive); in the assay with CCRF-CEM, > 100 µM (inactive); with MOLT-4 it was > 100 µM (inactive); in the assay with SN12C it was 0.791 µM (active). The GI50 with LOX IMVI, with COLO 205 and in the assay on TK-10 was > 100 µM (inactive) throughout.

Take `CCOC(=O)c1[nH]c2cc(OC)c(OC)cc2c1CN(C)C`: the GI50 in the assay with HCT-116, in the assay with CAKI-1, in the assay on UO-31, with SR, in the assay on OVCAR-8 and in the assay with ACHN was > 100 µM (inactive) each time. Moreover, the GI50 in the assay on NCI-H23, in the assay with 786-0, in the assay with M14, in the assay with SW-620, in the assay with RXF 393 and in the assay with CCRF-CEM was > 100 µM (inactive) throughout. Moreover, the GI50 with MOLT-4, in the assay with SN12C, in the assay on LOX IMVI and with TK-10 was > 100 µM (inactive) each time.

Regarding `C/C(CC(=O)NC1=CC=C(NC(=O)C/C(C)=N\Nc2ccccc2)CC1)=N/Nc1ccccc1`, the GI50 was > 100 µM (inactive) with HCT-116; > 100 µM (inactive) with CAKI-1; > 100 µM (inactive) in the assay with UO-31; 37.8 µM (inactive) in the assay on SR; > 100 µM (inactive) in the assay on OVCAR-8; > 100 µM (inactive) in the assay with ACHN. Moreover, the GI50 was > 100 µM (inactive) with NCI-H23; > 100 µM (inactive) in the assay with 786-0; > 100 µM (inactive) in the assay on M14; > 100 µM (inactive) in the assay on RXF 393; 72.6 µM (inactive) in the assay on NCI-H522; > 100 µM (inactive) in the assay with CCRF-CEM. Further, the GI50 is > 100 µM (inactive) in the assay on MOLT-4; > 100 µM (inactive) with SN12C; 70.8 µM (inactive) in the assay on LOX IMVI; 27.1 µM (inactive) in the assay with COLO 205; > 100 µM (inactive) with TK-10.

Turning to `CC(=O)c1ccc(NC(=O)C(=O)Nn2c(S)nc3ccccc3c2=O)cc1`, the GI50 with HCT-116, in the assay on CAKI-1, in the assay with UO-31, with SR, with OVCAR-8 and in the assay with ACHN was > 100 µM (inactive) in each case. The GI50 in the assay on NCI-H23, in the assay on 786-0, with M14, in the assay on SW-620, with RXF 393 and in the assay on NCI-H522 was > 100 µM (inactive) in each case. Moreover, the GI50 with MOLT-4, with SN12C, with LOX IMVI, with COLO 205 and in the assay on TK-10 was > 100 µM (inactive) throughout.

On to `N#CCc1ccc(C(C#N)/C(CCCC(=O)Nc2cccc([N+](=O)[O-])c2)=N\NC(=O)NN)cc1` (configuration not stated), for which the GI50 in the assay on HCT-116, with CAKI-1, in the assay on UO-31, in the assay with SR, in the assay on OVCAR-8 and in the assay with ACHN was > 100 µM (inactive) throughout. Moreover, the GI50 in the assay on NCI-H23, in the assay on 786-0, in the assay on M14, in the assay with SW-620, with RXF 393 and in the assay on NCI-H522 was > 100 µM (inactive) throughout. In addition, the GI50 in the assay with CCRF-CEM, with MOLT-4, in the assay with SN12C, in the assay with COLO 205 and in the assay with TK-10 was > 100 µM (inactive) throughout.
